From patent US10487054B2, “Therapeutic compounds” (REGENTS OF THE UNIVERSITY OF MINNESOTA, priority 2017, dated 2019)

Key:
HaCaT cells = experiment: Western blot of SUV-induced TOPK downstream signaling; type: cell-based, human
Protocol: The cells were cultured, treated for 4 h with different concentrations of compound 1 and then exposed to SUV (60 kJ UVA/m^2 and 2.9 kJ UVB/m^2), followed by an additional 15-minute incubation. Cells were harvested and the levels of phosphorylated and total proteins were determined by Western blot analysis with specific antibodies as indicated. […] The cells were cultured and treated with different concentrations of compound 1 for 24 h. Cells were harvested and the levels of phosphorylated and total proteins were determined by Western blot analysis with specific antibodies as indicated. […] For the luciferase assay, JB6 P+ cells stably transfected with an AP-1 luciferase reporter plasmid were cultured. After starvation for 24 h, cells were treated for 1 h with compound 1 (0, 1.25, 2.5, or 5 μM). Cells were then exposed to SUV (60 kJ UVA/m^2 and 2.9 kJ UVB/m^2) and harvested 3 h later. Luciferase activity was measured and AP-1 activity is expressed relative to control cells without SUV treatment. […] Knockdown of TOPK in A431 cell line (left). Stable control or TOPK knockdown cells were co-transfected with 100 ng of the AP-1 luciferase reporter plasmid and 50 ng of internal control […] plasmid. Cells were transfected using iMFectin poly DNA transfection reagent (GenDEPOT) according to the manufacturer's instructions. After 12 h of transfection, cells were incubated with the different concentrations of compound 1 for another 24 h. Luciferase and […] activities were measured using reagents included in the reporter assay system (right). Data are shown as mean values±S.D obtained from triplicate experiments. Significant differences were evaluated using one-way ANOVA and the asterisks (*) indicate a significant effect (*, p<0.05; **, p<0.001; ***, p<0.0001). […]
HaCaT or JB6 P+ cells (1×10^6) were cultured in 10-cm dishes for 24 h and then the medium was replaced with 0.1% FBS medium for 24 h. […] Protein concentration in cell lysates was determined using a protein assay kit (Bio-Rad Laboratories, Hercules, Calif.). […]

[1] = test system: AP-1 activity in A431 cells; experiment: AP-1 luciferase reporter assay in control or TOPK knockdown cells; type: cell-based, human
Protocol: The cells were cultured, treated for 4 h with different concentrations of compound 1 and then exposed to SUV (60 kJ UVA/m^2 and 2.9 kJ UVB/m^2), followed by an additional 15-minute incubation. Cells were harvested and the levels of phosphorylated and total proteins were determined by Western blot analysis with specific antibodies as indicated. […] The cells were cultured and treated with different concentrations of compound 1 for 24 h. Cells were harvested and the levels of phosphorylated and total proteins were determined by Western blot analysis with specific antibodies as indicated. […] For the luciferase assay, JB6 P+ cells stably transfected with an AP-1 luciferase reporter plasmid were cultured. […] Luciferase activity was measured and AP-1 activity is expressed relative to control cells without SUV treatment. […] Luciferase and 3-galactosidase activities were measured using reagents included in the reporter assay system (right). […] Significant differences were evaluated using one-way ANOVA and the asterisks (*) indicate a significant effect (*, p<0.05; **, p<0.001; ***, p<0.0001). […]
Stable control or TOPK knockdown cells were co-transfected with 100 ng of the AP-1 luciferase reporter plasmid and 50 ng of an internal control […] plasmid. […] Luciferase and β-galactosidase activities were measured using the Luminoskan Ascent and Multiskan MCC (Labsystems), respectively. […]

[2] = test system: JB6 P+ mouse epidermal skin cells; experiment: MTS assay for cytotoxicity; type: cell-based; details: 24 or 48 h, concentrations less than 10 μM
Protocol: (§1) Cells (1×10^4 cells/well) were seeded into 96-well plates. After an overnight incubation, cells were treated with different concentrations of compound 1 and incubated for 24 or 48 h. Then 20 μL of the CellTiter 96 Aqueous One Solution (Promega, Madison, Wis.) were added to each well and cells were incubated for an additional 1 h at 37° C. Absorbance was measured at an optical density of 492 and 690 nm using the Thermo Multiskan plate-reader (Thermo Fisher Scientific, Waltham, Mass.).
as §1, with “plates for determining cytotoxicity.” for “plates.”, “(Promega Corporation,” for “(Promega,”

[3] = test system: normal human dermal fibroblasts (NHDF); experiment: MTS assay for cytotoxicity; type: cell-based; details: 24 or 48 h, concentrations less than 10 μM
Protocol: as §1
as §1, with “plates for determining cytotoxicity.” for “plates.”, “(Promega Corporation,” for “(Promega,”

For O=C1Nc2ccc(C34CC5CC(CC(C5)C3)C4)cc2C1=NO [compound 1, 5-(adamantan-1-yl)-3-(hydroxyimino)indolin-2-one], the “phosphorylated c-Jun protein levels” value (HaCaT cells; HaCaT cells exposed to SUV) was “significantly suppressed”, the “phosphorylation of ERK1/2, p38, and JNKs” value (HaCaT cells; HaCaT cells, 4 h treatment then SUV (60 kJ UVA/m2 and 2.9 kJ UVB/m2)) was “markedly suppressed” and the “phosphorylated and total TOPK protein levels” value (HaCaT cells; Western blot, cell lines not specified in the sentence (FIG. 3A, 3B)) was “no significant changes”. The AP-1 activity ([1]; A431 TOPK knockdown group, highest concentration (5 μM)) was “only slightly affected”, the AP-1 activity ([1]; A431 control group, 24 h) was “inhibited by compound 1 in a dose-dependent manner” and the cytotoxicity [2] was “no cytotoxicity”. For the same molecule, the cytotoxicity [3] was “no cytotoxicity”.
